Assays:
Format in all cases: in vivo
[1] = test system: Echinochloa crus-galli (ECHCG); experiment: Post-emergence Test, ECHCG; conditions: sprayed after 8 days cultivation, 1000 g/ha, evaluated after 13 days
Experimental: (§1) Seeds of a variety of test species are sown in standard soil in pots (Amaranthus retoflexus (AMARE), Solarium nigrum (SOLNI), Setaria faberi (SETFA), Lolium perenne (LOLPE), Echinochloa crus-galli (ECHCG), Ipornoea hederacea (IPOHE)). After 8 days cultivation under controlled conditions in a glasshouse (at 24° C./16° C., day/night; 14 hours light; 65% humidity), the plants are sprayed with an aqueous spray solution derived from the formulation of the technical active ingredient in acetone/water (50:50) solution containing 0.5% Tween 20 (polyoxyethylene sorbitan monolaurate, CAS RN 9005-64-5). Compounds are applied at 1000 g/ha unless otherwise stated. The test plants are then grown in a glasshouse under controlled conditions in a glasshouse (at 24° C./16° C., day/night; 14 hours light; 65% humidity) and watered twice daily. After 13 days the test is evaluated for the percentage damage caused to the plant. The biological activities are shown in the following table on a five-point scale (5=81-100%; 4=61-80%; 3=41-60%; 2=21-40%; 1=10-20%; 0=0%; −=not tested).

ABUTH [2] = experiment: Post-emergence Test, ABUTH; conditions: sprayed after 8 days cultivation, 1000 g/ha, evaluated after 13 days
Experimental: [The procedure below names another target; the source lists this target under the same test.] as §1

[3] = test system: Amaranthus retoflexus (AMARE); experiment: Post-emergence Test, AMARE; conditions: sprayed after 8 days cultivation, 1000 g/ha, evaluated after 13 days
Experimental: as §1

Setaria faberi (SETFA) [4] = experiment: Pre-emergence Test, SETFA; conditions: 1000 g/ha, evaluated after 13 days
[5] = test system: Amaranthus retoflexus (AMARE); experiment: Pre-emergence Test, AMARE; conditions: 1000 g/ha, evaluated after 13 days
[6] = test system: Ipornoea hederacea (IPOHE); experiment: Pre-emergence Test, IPOHE; conditions: 1000 g/ha, evaluated after 13 days
[7] = test system: Ipornoea hederacea (IPOHE); experiment: Post-emergence Test, IPOHE; conditions: sprayed after 8 days cultivation, 1000 g/ha, evaluated after 13 days
Experimental: as §1

ZEAMX [8] = experiment: Post-emergence Test, ZEAMX; conditions: sprayed after 8 days cultivation, 1000 g/ha, evaluated after 13 days
Experimental: [The procedure below names another target; the source lists this target under the same test.] as §1

Setaria faberi (SETFA) [9] = experiment: Post-emergence Test, SETFA; conditions: sprayed after 8 days cultivation, 1000 g/ha, evaluated after 13 days
Experimental: as §1

ABUTH [10] = experiment: Pre-emergence Test, ABUTH; conditions: 1000 g/ha, evaluated after 13 days
ZEAMX [11] = experiment: Pre-emergence Test, ZEAMX; conditions: 1000 g/ha, evaluated after 13 days
[12] = test system: Echinochloa crus-galli (ECHCG); experiment: Pre-emergence Test, ECHCG; conditions: 1000 g/ha, evaluated after 13 days

| Structure (SMILES) | percentage damage caused to the plant, ECHCG [1] | percentage damage caused to the plant, ABUTH (ABUTH [2]) | percentage damage caused to the plant, AMARE [3] | percentage damage caused to the plant, SETFA (Setaria faberi (SETFA) [4]) | percentage damage caused to the plant, AMARE [5] | percentage damage caused to the plant, IPOHE [6] | percentage damage caused to the plant, IPOHE [7] | percentage damage caused to the plant, ZEAMX (ZEAMX [8]) | percentage damage caused to the plant, SETFA (Setaria faberi (SETFA) [9]) | percentage damage caused to the plant, ABUTH (ABUTH [10]) | percentage damage caused to the plant, ZEAMX (ZEAMX [11]) | percentage damage caused to the plant, ECHCG [12] |
| --- | --- | --- | --- | --- | --- | --- | --- | --- | --- | --- | --- | --- |
| O=C(O)c1nn(-c2ccc(OC(F)(F)F)cc2)c2cccc(-n3cc(C(F)(F)F)cn3)c2c1=O [Compound P22, 4-oxo-1-[4-(trifluoromethoxy)phenyl]-5-[4-(trifluoromethyl)pyrazol-1-yl]cinnoline-3-carboxylic acid] | 0 (0=0%) | 1 (1=10-20%) | 4 (4=61-80%) | 0 (0=0%) | 2 (2=21-40%) | 0 (0=0%) | 1 (1=10-20%) | 2 (2=21-40%) | 2 (2=21-40%) | 0 (0=0%) | 0 (0=0%) | 0 (0=0%) |
| O=C(O)c1nn(-c2ccc(OC(F)(F)F)cc2)c2cccc(N3CCCC3)c2c1=O [Compound P23, 4-oxo-5-pyrrolidin-1-yl-1-[4-(trifluoromethoxy)phenyl] cinnoline-3-carboxylic acid] | 0 (0=0%) | 0 (0=0%) | 0 (0=0%) | 0 (0=0%) | 0 (0=0%) | 0 (0=0%) | 0 (0=0%) | 0 (0=0%) | 0 (0=0%) | 0 (0=0%) | 0 (0=0%) | 0 (0=0%) |
| O=C(O)c1nn(-c2ccc(OC(F)(F)F)cc2)c2cccc(N3CCCCC3)c2c1=O [Compound P24, 4-oxo-5-(1-piperidyl)-1-[4-(trifluoromethoxy)phenyl] cinnoline-3-carboxylic acid] | 0 (0=0%) | 1 (1=10-20%) | 0 (0=0%) | 0 (0=0%) | 0 (0=0%) | 0 (0=0%) | 0 (0=0%) | 0 (0=0%) | 0 (0=0%) | 1 (1=10-20%) | 0 (0=0%) | 1 (1=10-20%) |
| O=C(O)c1nn(-c2ccc(OC(F)(F)F)cc2)c2cccc(N3CCOCC3)c2c1=O [Compound P25, 5-morpholino-4-oxo-1-[4-(trifluoromethoxy)phenyl] cinnoline-3-carboxylic acid] | 0 (0=0%) | 0 (0=0%) | 0 (0=0%) | 0 (0=0%) | 0 (0=0%) | 0 (0=0%) | 0 (0=0%) | 0 (0=0%) | 0 (0=0%) | 0 (0=0%) | 0 (0=0%) | 0 (0=0%) |
| CCOC(=O)c1nn(-c2ccc(OC(F)(F)F)cc2)c2cccc(N3CCOCC3)c2c1=O [Compound P26, ethyl 5-morpholino-4-oxo-1-[4-(trifluoromethoxy)phenyl] cinnoline-3-carboxylate] | 1 (1=10-20%) | 0 (0=0%) | 0 (0=0%) | 0 (0=0%) | 0 (0=0%) | 0 (0=0%) | 0 (0=0%) | 0 (0=0%) | 0 (0=0%) | 0 (0=0%) | 0 (0=0%) | 0 (0=0%) |
| CCOC(=O)c1nn(-c2ccc(OC(F)(F)F)cc2)c2cccc(N3CCCCC3)c2c1=O [Compound P27, ethyl 4-oxo-5-(1-piperidyl)-1-[4-(trifluoromethoxy)phenyl] cinnoline-3-carboxylate] | 0 (0=0%) | 0 (0=0%) | 0 (0=0%) | 0 (0=0%) | 0 (0=0%) | 0 (0=0%) | 0 (0=0%) | 0 (0=0%) | 0 (0=0%) | 0 (0=0%) | 0 (0=0%) | 0 (0=0%) |
| CCOC(=O)c1nn(-c2ccc(OC(F)(F)F)cc2)c2cccc(N3CCCC3)c2c1=O [Compound P28, ethyl 4-oxo-5-pyrrolidin-1-yl-1-[4-(trifluoromethoxy)phenyl] cinnoline-3-carboxylate] | 0 (0=0%) | 0 (0=0%) | 0 (0=0%) | 0 (0=0%) | 0 (0=0%) | 0 (0=0%) | 0 (0=0%) | 0 (0=0%) | 0 (0=0%) | 0 (0=0%) | 0 (0=0%) | 0 (0=0%) |

— US12649722B2, “Herbicidal cinnoline derivatives” (SYNGENTA CROP PROTECTION AG, priority 2020, dated 2026)
